The text below walks through data of patent publication US8309299B2, “Combination therapy and method for assessing resistance to treatment” (Hoffmann-La Roche Inc., priority 2010, dated 2012).

Experiment [1] concerns HCT-116 (colon) xenograft. The experiment in a line: in vivo activity in HCT-116 xenograft model. More on the design: species or system human. The note with it: HCT-116 (colon) xenograft in nude mice; 10 mg/kg daily po; 21 days following commencement of treatment. Here is the method:
(§1) Female nu/nu (nude) mice obtained from Charles River Laboratories (Wilmington, Mass.) or female SCID-beige mice (Taconic, Germantown, N.Y.) were used (10 mice/group) when they were approximately 8 to 14 weeks old and weighed approximately 23 to 25 grams. All animal experiments were performed in accordance with protocols approved by the Roche Animal Care and Use Committee (RACUC).
(§2) The human cancer cell lines LOVO, BxPC3, HCT-116, A549, AsPC-1, MiaPaCa-2, and Calu-6 were purchased from the American Type Culture Collection. The H460a cell line was a gift from Dr. Jack Roth (M. D. Anderson Medical Center).
(§3) For xenograft implantation, cells were harvested using 0.05% trypsin, washed and centrifuged in culture medium, and resuspended in either a 1:1 mixture of phosphate buffered saline (PBS) and Matrigel (BxPC-3) or PBS alone (A549, H460a, LOVO, Calu-6, HCT-116, MiaPaca-2, and AsPC-1) at a concentration of 1.5-5×10^7 cells per mL. […]
(§4) Tumor measurements and mouse weights were taken twice per week. Statistical analysis was determined by Mann-Whitney Rank Sum Test, 1-way ANOVA, and post hoc Bonferroni t-test (SigmaStat, version 2.0, Jandel Scientific, San Francisco, Calif.). […]
(§5) Tumor growth inhibition (TGI %) was measured 21 days following the commencement of the treatment.

Experiment [2] concerns genes associated with angiogenesis. The note with it: Luistro et al., Cancer Research 69:7672-80 (2009), cited from earlier work.
The test system of experiment [3] is 1:1 mixture of A549 overexpressing IL6 or IL8 (xenograft). As to the kind of experiment: in vivo activity in xenograft of 1:1 mixture of IL6- and IL8-overexpressing A549 cells. The note with it: Example 5; tumors from 1:1 mixture of A549 overexpressing IL6 or IL8; 10 mg/kg once daily; after 21 days. More on the design: species or system human. The source says:
(§6) IL6 and IL8 lentiviruses were made using IL6 and IL8 plasmids (available from Genecopoeia, Rockville, Md., USA), respectively. A549 cells were divided into three groups with one group receiving a vector control, one group being infected with the IL6 lentivirus and the third group being infected with the IL8 lentivirus. The later two groups formed cell pools with stable expression of exogenous IL6 and IL8, respectively.
A portion of the IL6 overexpressing A549 cells and the IL8 overexpressing A549 cells were then combined to form a fourth group containing a 1:1 mixture of such cells.
(§7) Cells from the aforementioned four groups and parental A549 and H460a cells were used to make xenograft models using the procedure described in Example 1. […]

The test system of experiment [4] is A549 cells overexpressing IL8 (xenograft). As to the kind of experiment: in vivo activity in IL8-overexpressing A549 xenograft model. More on the design: species or system human. The note with it: Example 5, 10 mg/kg once daily, after 21 days.
Text: as §6, §7

In a further experiment the test system is Calu-6 (NSCLC) xenograft. As to the kind of experiment: in vivo activity in Calu-6 xenograft model. Further details: species or system human. The note with it: Calu-6 (NSCLC) xenograft in nude mice; 60 mg/kg daily every other week for 4 weeks (7+/7- x 2 cycles) po; 21 days following commencement of treatment. How it is done: as §1, §2, §3, §4, §5
The test system of the next experiment is LOX (melanoma) xenograft. The experiment in a line: in vivo activity in LOX xenograft model. More on the design: species or system human. The conditions noted are these: LOX xenograft in nude mice; 10 mg/kg once daily for 11 days. How it is done:
(§8) The human cancer cell lines U87MG and LOX were purchased from the American Type Culture Collection. Xenografts were implanted in female nu/nu (nude) mice obtained from Charles River Laboratories (Wilmington, Mass.) (10 mice/group) when they were approximately 8 to 14 weeks old and weighed approximately 23 to 25 grams. All animal experiments were performed in accordance with protocols approved by the Roche Animal Care and Use Committee (RACUC). For xenograft implantation, cells were harvested using 0.05% trypsin, washed and centrifuged in culture medium, and resuspended in either a 1:1 mixture of phosphate buffered saline (PBS) and Matrigel (U87MG) or PBS alone (LOX) at a concentration of 1.5-5×10^7 cells per mL. A volume of 0.2 mL cell suspension (5×10^6 cells for U87MG, 2×10^6 cells for LOX) per mouse was implanted subcutaneously in the right flank. Tumors were allowed to grow for 8 to 26 days post implant when mean volume reached ˜100-150 mm^3, after which animals were randomized into treatment groups: U87MG xenograft mice receiving vehicle (Klucel and Tween) once daily, U87MG xenograft mice receiving Compound I at 10 mg/kg once daily for 21 days, LOX xenograft mice receiving vehicle (Klucel and Tween) once daily, and LOX xenograft mice receiving Compound I at 10 mg/kg once daily for 11 days.

The test system of experiment [5] is A549 vector control tumors. As to the kind of experiment: in vivo activity in A549 vector control xenograft model. Further details: species or system human. The conditions noted are these: Example 5, 10 mg/kg once daily, after 21 days.
Text: as §6, §7

Experiment [6] relates to A549 cells overexpressing IL6 (xenograft). As to the kind of experiment: in vivo activity in IL6-overexpressing A549 xenograft model. More on the design: species or system human. The note with it: Example 5, 10 mg/kg once daily, after 21 days.
Text: as §6, §7

A further experiment concerns LOVO (colon) xenograft. As to the kind of experiment: in vivo activity in LOVO xenograft model. Further details: species or system human. The note with it: LOVO (colon) xenograft in nude mice; 10 mg/kg daily po; 21 days following commencement of treatment. How it is done:
as §1, §2, §3, §4, §5

Experiment [7] relates to AsPC-1 (pancreatic) xenograft. As to the kind of experiment: in vivo activity in AsPC-1 xenograft model. The conditions noted are these: AsPC-1 (pancreatic) xenograft in nude mice; 10 mg/kg daily po; 21 days following commencement of treatment. Further details: species or system human. Here is the method:
as §1, §2, §3, §4, §5

In a further experiment the test system is Hes1 mRNA. The experiment in a line: downregulation of Hes1 mRNA following in vitro treatment (Notch signaling blockage). Format: cell-based, human. The text has this:
Expression of IL6 and IL8 was then quantified in the BxPC3, HCT-116, A549, AsPC-1, MiaPaCa-2, and Calu-6 cell lines by measuring the level of mRNA using qRT-PCR. RNA isolation, and reverse transcription-PCR (RT-PCR) were done using standard laboratory techniques. The catalogue numbers for each probe set were Hes1 (Hs00172878_ml), ACTB (4333762F), IL6 (Hs00174131_ml), IL8 (Hs00174103_ml) and 18S (4319413E).

The subject of the next experiment is H460a (NSCLC) xenograft. The experiment in a line: in vivo activity in H460a xenograft model. Further details: species or system human. How it is done: as §1, §2
For xenograft implantation, cells were harvested using 0.05% trypsin, washed and centrifuged in culture medium, and resuspended in either a 1:1 mixture of phosphate buffered saline (PBS) and Matrigel (BxPC-3) or PBS alone (A549, H460a, LOVO, Calu-6, HCT-116, MiaPaca-2, and AsPC-1) at a concentration of 1.5-5×10^7 cells per mL. A volume of 0.2 mL cell suspension (7.5×10^6 cells for A549, 1×10^7 cells for H460a, 3×10^6 cells for Calu-6 and HCT116, 5×10^6 cells for BxPC3 and AsPC-1, 6×10^6 cells for MiaPaca-2, and 5×10^6 for LOVO) per mouse was implanted subcutaneously in the right flank. All xenograft models were implanted into nude mice with the exception of BxPC3, which was implanted into SCID-beige mice. Tumors were allowed to grow for 8 to 26 days post implant when mean volume reached ˜100-150 mm^3, after which animals were randomized into treatment groups.
Compound I (synthesized according to the procedure described in WO2005/023772) was formulated as a suspension in 1.0% Klucel in water with 0.2% Tween®-80 for oral (po) administration. Formulated compound and vehicle were prepared weekly and stored at 4° C. In the Calu-6 xenograft model, Compound I was dosed at 60 mg/kg daily every other week for 4 weeks (7+/7−×2 cycles). All other xenograft models were dosed with Compound I at 10 mg/kg daily.
Tumor measurements and mouse weights were taken twice per week. Statistical analysis was determined by Mann-Whitney Rank Sum Test, 1-way ANOVA, and post hoc Bonferroni t-test (SigmaStat, version 2.0, Jandel Scientific, San Francisco, Calif.). Differences between groups were considered significant when the probability value (p) was ≦0.05.
as §5, §7

Experiment [8] relates to U87MG (glioblastoma) xenograft. The experiment in a line: in vivo activity in U87MG xenograft model. More on the design: species or system human. The conditions noted are these: U87MG xenograft in nude mice; 10 mg/kg once daily for 21 days. How it is done:
as §8

Experiment [9] concerns BxPC3 (pancreatic) xenograft. The experiment in a line: in vivo activity in BxPC3 xenograft model. More on the design: species or system human. The note with it: BxPC3 (pancreatic) xenograft in SCID-beige mice; 10 mg/kg daily po; 21 days following commencement of treatment. Here is the method:
as §1, §2, §3, §4, §5

The subject of another experiment is A549 (NSCLC) xenograft. As to the kind of experiment: in vivo activity in A549 xenograft model. More on the design: species or system human. How it is done:
as §1, §2, §3, §4
Tumor growth inhibition (TGI %) was measured 21 days following the commencement of the treatment. […]

Experiment [10] has as its system MiaPaCa-2 (pancreatic) xenograft. As to the kind of experiment: in vivo activity in MiaPaCa-2 xenograft model. More on the design: species or system human. The note with it: MiaPaCa-2 (pancreatic) xenograft in nude mice; 10 mg/kg daily po; 21 days following commencement of treatment. How it is done: as §1, §2, §3, §4, §5
Experiment [11] concerns IL8-knockdown H460a xenograft. As to the kind of experiment: in vivo activity in IL8-knockdown H460a xenograft model. Further details: species or system human. The note with it: Example 6; IL8-knockdown H460a tumors; 10 mg/kg once daily for 21 days. The text has this: Lentiviruses were made using pLKO.1-based anti-IL8 shRNA (purchased from Open Biosystems) and used to stably knockdown IL8 expression in H460a cells. […] IL8-knockdown H460a cells, however, still had more than 2-fold higher IL8 levels compared to A549 cells.
Parental H460a cells and IL8-knockdown H460a cells were then implanted as xenografts in mice using the procedures described in Example 1. The mice were then randomized into different treatment groups (10 mice/group): H460a xenograft mice receiving vehicle once daily, H460a xenograft mice receiving Compound I at 10 mg/kg once daily, IL8-knockdown H460a xenograft mice receiving vehicle once daily, and IL8-knockdown H460a xenograft mice receiving Compound I at 10 mg/kg once daily.

The test system of experiment [12] is H460a, A549 parental, A549 control, A549 IL6, A549 IL8 and 1:1 mixture xenograft models. As to the kind of experiment: Taxol positive drug control across the xenograft models of Example 5. The class given is in vivo, human. The note with it: 30 mg/kg, all xenograft models of FIG. 5.
Text: as §7

On to `CC(C)(C(=O)NCC(F)(F)C(F)(F)F)C(=O)N[C@@H]1C(=O)Nc2ccccc2-c2ccccc21` [Compound I, 2,2-dimethyl-N-((S)-6-oxo-6,7-dihydro-5H-dibenzo[b,d]azepin-7-yl)-N′-(2,2,3,3,3-pentafluoro-propyl)-malonamide], for which the TGI % worked out at 76% in experiment [1]; 42% in the experiment with Calu-6 (NSCLC) xenograft; 83% in the experiment on LOVO (colon) xenograft; 58% in experiment [7]; 8% in the experiment on H460a (NSCLC) xenograft (H460a (NSCLC) xenograft in nude mice, 10 mg/kg daily po, 21 days following commencement of treatment (Example 1)); 82% in experiment [9]. The TGI % in the experiment on A549 (NSCLC) xenograft (A549 (NSCLC) xenograft in nude mice, 10 mg/kg daily po, 21 days following commencement of treatment) was determined as 70%; in experiment [10], 53%. In addition, the “change in the angiogenic gene profile” value in [2] (H460a xenograft) is recorded as “little change”. The “expression of genes associated with angiogenesis” value in experiment [2] (treated xenografts) is “reduced expression”. The TGI in [3] was found to be 8%; in experiment [4], 45%; with LOX (melanoma) xenograft it was 15%; in experiment [5], 61%; in [6], 32%; in the experiment on H460a (NSCLC) xenograft (Example 5, H460a xenograft (high IL6 and IL8), 10 mg/kg once daily, after 21 days), 9%. The TGI in the experiment with H460a (NSCLC) xenograft (Example 6, parental H460a tumors, 10 mg/kg once daily for 21 days) was 5%; in the experiment with H460a (NSCLC) xenograft (Example 7, H460a xenograft, Compound I 10 mg/kg once daily, anti-IL8 antibody 20 mg/kg twice weekly), 10%; in the experiment on H460a (NSCLC) xenograft (Example 8, H460a xenograft, Compound I 10 mg/kg once daily, anti-IL6 antibody 20 mg/kg twice weekly), 43%; in experiment [8] it was −17%; in the experiment on A549 (NSCLC) xenograft (Example 5, parental A549 tumors, 10 mg/kg once daily, after 21 days) it was 71%; in experiment [11], 24%. Also, the “downregulation of Hes1 mRNA” value in the experiment on Hes1 mRNA (A549 overexpressing IL6), in the experiment on Hes1 mRNA (A549 overexpressing IL8), in the experiment on Hes1 mRNA (LOX cells) and with Hes1 mRNA (U87MG cells) was “properly maintained” throughout.

In the case of `CC(=O)O[C@H]1C(=O)[C@@]2(C)[C@H]([C@H](OC(=O)c3ccccc3)[C@]3(O)C[C@H](OC(=O)[C@H](O)[C@@H](NC(=O)c4ccccc4)c4ccccc4)C(C)=C1C3(C)C)[C@]1(OC(C)=O)CO[C@@H]1C[C@@H]2O` [Taxol®], in experiment [12], the “TGI (positive drug control)” value is given as “consistent TGI across the various models”.
